Test: from Ebert, E.; Eckhardt, W.; Jakel, K.; Moser, P.; Sozzi, D.; Vogel, C. (1989). Quantitative structure-activity relationships of fungicidally active triazoles: analogs and stereoisomers of propiconazole …
Conditions: pH 7.0

Compound	logD
COCCOCC1COC(Cn2cncn2)(c2ccc(Cl)cc2Cl)O1 (stereo not given)	2.03
OCC1COC(Cn2cncn2)(c2ccc(Cl)cc2Cl)O1 (stereo not given)	1.76
CC1COC(Cn2cncn2)(c2ccc(-n3cncn3)cc2Cl)O1 (stereo not given)	1.28
CCC1COC(Cn2cncn2)(c2ccc(-c3ccccc3)cc2)O1 (stereo not given)	3.71
CCC1COC(Cn2cncn2)(c2ccc(NC(=O)NC)cc2)O1 (stereo not given)	0.62
CCC1COC(Cn2cncn2)(c2ccc([N+](=O)[O-])cc2)O1 (stereo not given)	1.52
CCC1COC(Cn2cncn2)(c2ccc(NC(=O)C(F)(F)F)cc2)O1 (stereo not given)	1.08
CCC1COC(Cn2cncn2)(c2ccc(Cl)cc2Cl)O1 (stereo not given)	3.03
Cc1ccc(C2(Cn3cncn3)OCCO2)cc1	1.55
CCC1COC(Cn2cncn2)(c2ccc(NC(=O)c3ccc([N+](=O)[O-])cc3)cc2)O1 (stereo not given)	2.17

Reference: the SangsterLogP compilation
